For one molecule, IC50 results are on record in article PMC5982776, “The novel anti-androgen candidate galeterone targets deubiquitinating enzymes, USP12 and USP46, to control prostate cancer growth and survival” (Oncotarget, 2018).

Test [1] addresses USP46 (Homo sapiens, UniProt P62068). Put plainly: Biacore SPR dose-dependent binding; IC50 from Ub-AMC enzyme inhibition with USP46/UAF1. The format is biochemical. On the technique in general: In SPR one partner is held on a chip, and binding of the other changes the refractive index at the surface.
Test [2] addresses USP12 (Homo sapiens, UniProt O75317). Put plainly: Biacore SPR dose-dependent binding; IC50 from Ub-AMC enzyme inhibition with USP12/UAF1. It is filed as biochemical.

Chain of USP46 (P62068 whole entry): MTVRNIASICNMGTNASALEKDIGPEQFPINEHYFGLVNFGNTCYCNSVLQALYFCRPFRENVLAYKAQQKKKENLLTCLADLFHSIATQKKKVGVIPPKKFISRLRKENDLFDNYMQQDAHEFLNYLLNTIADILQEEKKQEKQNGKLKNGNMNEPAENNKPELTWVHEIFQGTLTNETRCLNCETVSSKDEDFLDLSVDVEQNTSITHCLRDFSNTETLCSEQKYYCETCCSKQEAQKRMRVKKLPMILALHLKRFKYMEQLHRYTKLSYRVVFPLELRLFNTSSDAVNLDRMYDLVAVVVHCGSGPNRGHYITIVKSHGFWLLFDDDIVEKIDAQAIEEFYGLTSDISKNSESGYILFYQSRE
Chain of USP46 (Q8TAF3 whole entry partner): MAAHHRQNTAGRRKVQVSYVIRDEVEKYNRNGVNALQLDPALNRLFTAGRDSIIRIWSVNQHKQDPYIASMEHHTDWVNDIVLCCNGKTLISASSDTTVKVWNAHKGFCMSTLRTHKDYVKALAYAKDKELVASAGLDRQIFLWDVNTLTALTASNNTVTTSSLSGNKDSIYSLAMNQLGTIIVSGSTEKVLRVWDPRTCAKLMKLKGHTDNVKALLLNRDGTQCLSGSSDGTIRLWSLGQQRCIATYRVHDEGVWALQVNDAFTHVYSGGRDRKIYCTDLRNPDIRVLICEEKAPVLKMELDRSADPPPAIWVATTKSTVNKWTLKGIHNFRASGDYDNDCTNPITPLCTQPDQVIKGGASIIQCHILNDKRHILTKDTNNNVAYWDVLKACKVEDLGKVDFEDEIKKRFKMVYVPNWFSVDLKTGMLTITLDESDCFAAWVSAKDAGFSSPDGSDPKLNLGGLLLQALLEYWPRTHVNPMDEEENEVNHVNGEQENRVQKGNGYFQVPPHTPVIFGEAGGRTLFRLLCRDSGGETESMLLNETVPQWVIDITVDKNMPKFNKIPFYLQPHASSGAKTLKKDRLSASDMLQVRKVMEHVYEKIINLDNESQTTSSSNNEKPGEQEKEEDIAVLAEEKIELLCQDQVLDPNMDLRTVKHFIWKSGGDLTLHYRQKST
Chain of USP12 (O75317 whole entry): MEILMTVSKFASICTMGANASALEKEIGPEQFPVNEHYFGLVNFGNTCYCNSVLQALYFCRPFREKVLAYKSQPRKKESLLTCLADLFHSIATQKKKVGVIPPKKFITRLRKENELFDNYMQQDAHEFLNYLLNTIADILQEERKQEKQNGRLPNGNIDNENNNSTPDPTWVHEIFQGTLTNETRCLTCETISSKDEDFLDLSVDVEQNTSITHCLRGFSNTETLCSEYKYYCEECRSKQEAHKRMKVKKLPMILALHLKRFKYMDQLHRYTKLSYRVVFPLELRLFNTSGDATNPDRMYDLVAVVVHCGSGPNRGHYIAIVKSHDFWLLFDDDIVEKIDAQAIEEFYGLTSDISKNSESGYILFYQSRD
Chain of USP12 (Q8TAF3 whole entry partner): as the sequence (Q8TAF3 whole entry partner) above

`C[C@]12CC[C@H](O)CC1=CC[C@@H]1[C@@H]2CC[C@]2(C)C(n3cnc4ccccc43)=CC[C@@H]12` [galeterone]: the figures for the IC50 in test [1] and in test [2] were 3.4 to 4.2 µM and 2.1 to 3.4 µM, respectively.

As usually defined, the IC50 is the midpoint of a concentration-inhibition curve. The low end stands for greater potency, the high end for weaker potency.
